Measurements as given in ChEMBL document CHEMBL6109143, “Adamantane-Quinoxalone Hybrids: Precision Chemotypes and Their Molecular Mechanisms in Acute Myeloid Leukemia” (J Med Chem, 2025).
“And” between values parts separate entries of the source, which are not always exact repeats. Equal entries are not always repeated. The source made the active and inactive calls. No cut-off for these calls is given here.

Key:
[1] = system: Kasumi 1; experiment: Cytotoxicity against human Kasumi 1 cells assessed as reduction in cell viability at 50 uM incubated for 24 hrs by MTT assay relative to control; type: functional
[2] = system: Kasumi 1; experiment: Cytotoxicity against human Kasumi 1 cells harboring chromosomal translocation(8;21) assessed as reduction in cell viability incubated for 24 hrs by MTT assay; type: functional, cell-based; conditions: Kasumi 1, 24 h
[3] = system: THP-1; experiment: Cytotoxicity against human THP-1 cells harboring chromosomal translocation(9;11) assessed as reduction in cell viability incubated for 24 hrs by MTT assay; type: functional, cell-based; conditions: THP-1, 24 h
[4] = system: CAL-27; experiment: Cytotoxicity against human CAL-27 cells assessed as cell viability at 1 to 50 uM incubated for 24 hrs by MTT assay; type: functional, cell-based; conditions: dose 1-50 µM
[5] = system: MDA-MB-231; experiment: Cytotoxicity against human MDA-MB-231 cells assessed as cell viability at 1 to 50 uM incubated for 24 hrs by MTT assay; type: functional, cell-based; conditions: dose 1-50 µM
[6] = system: A549; experiment: Cytotoxicity against human A549 cells assessed as cell viability at 1 to 50 uM incubated for 24 hrs by MTT assay; type: functional, cell-based; conditions: dose 1-50 µM
[7] = system: ARPE-19; experiment: Cytotoxicity against human ARPE-19 cells assessed as reduction in cell viability incubated for 24 hrs by MTT assay; type: toxicity, cell-based; conditions: arpe-19, 24 h
[8] = system: MCF-10A; experiment: Cytotoxicity against human MCF-10A cells assessed as cell viability incubated for 24 hrs by MTT assay; type: toxicity, cell-based
[9] = Cytotoxicity against human Oral epithelial cells assessed as cell viability incubated for 24 hrs by MTT assay; type: toxicity, cell-based
[10] = system: Kasumi 1; experiment: Induction of cell cycle arrest in human Kasumi 1 cells assessed as increase in cells at G2/M phase at IC50 concentration incubated for 24 hrs by PI staining based flow cytometric analysis; type: functional
[11] = system: Kasumi 1; experiment: Induction of cell cycle arrest in human Kasumi 1 cells assessed as decrease in cells at S phase at IC50 concentration incubated for 24 hrs by PI staining based flow cytometric analysis; type: functional
[12] = system: Kasumi 1; experiment: Induction of cell cycle arrest in human Kasumi 1 cells assessed as increase in cells at G1 phase at IC50 concentration incubated for 24 hrs by PI staining based flow cytometric analysis (reference value: 66.25 %); type: functional
[13] = system: Kasumi 1; experiment: Induction of cell cycle arrest in human Kasumi 1 cells assessed as increase in cells at S phase at IC50 concentration incubated for 24 hrs by PI staining based flow cytometric analysis (reference value: 27.09 %); type: functional
[14] = system: Kasumi 1; experiment: Induction of cell cycle arrest in human Kasumi 1 cells assessed as increase in cells at G2 phase at IC50 concentration incubated for 24 hrs by PI staining based flow cytometric analysis (reference value: 6.65 %); type: functional
[15] = system: Kasumi 1; experiment: Induction of apoptosis in human Kasumi 1 cells assessed as viable cells at IC50 concentration incubated for 24 hrs by Annexin V/PI staining based flow cytometric analysis (reference value: 95.43 %); type: functional
[16] = system: Kasumi 1; experiment: Induction of apoptosis in human Kasumi 1 cells assessed as early apoptotic cells at IC50 concentration incubated for 24 hrs by Annexin V/PI staining based flow cytometric analysis (reference value: 2.38 %); type: functional
[17] = system: Kasumi 1; experiment: Induction of apoptosis in human Kasumi 1 cells assessed as late apoptotic cells at IC50 concentration incubated for 24 hrs by Annexin V/PI staining based flow cytometric analysis (reference value: 2.07 %); type: functional
[18] = system: Kasumi 1; experiment: Induction of apoptosis in human Kasumi 1 cells assessed as necrotic apoptotic cells at IC50 concentration incubated for 24 hrs by Annexin V/PI staining based flow cytometric analysis (reference value: 0.12 %); type: functional
[19] = system: Kasumi 1; experiment: Downregulation of MYCN gene expression in human Kasumi 1 cells at IC50 concentration incubated for 24 hrs by RNA sequencing analysis; type: functional, cell-based
[20] = system: Kasumi 1; experiment: Downregulation of BCL6 gene expression in human Kasumi 1 cells at IC50 concentration incubated for 24 hrs by RNA sequencing analysis; type: functional, cell-based
[21] = system: Kasumi 1; experiment: Downregulation of PIM1 gene expression in human Kasumi 1 cells at IC50 concentration incubated for 24 hrs by RNA sequencing analysis; type: functional, cell-based
[22] = system: Kasumi 1; experiment: Downregulation of CDK1 protein expression in human Kasumi 1 cells at IC50 concentration incubated for 24 hrs by LC-MS/MS analysis; type: functional, cell-based
[23] = system: Kasumi 1; experiment: Downregulation of MELK protein expression in human Kasumi 1 cells at IC50 concentration incubated for 24 hrs by LC-MS/MS analysis; type: functional, cell-based
[24] = system: Kasumi 1; experiment: Downregulation of UGFR1 gene expression in human Kasumi 1 cells at IC50 concentration incubated for 24 hrs by RNA sequencing analysis; type: functional, cell-based
[25] = system: Kasumi 1; experiment: Downregulation of HMMR gene expression in human Kasumi 1 cells at IC50 concentration incubated for 24 hrs by RNA sequencing analysis; type: functional, cell-based
[26] = system: Kasumi 1; experiment: Downregulation of CD109 gene expression in human Kasumi 1 cells at IC50 concentration incubated for 24 hrs by RNA sequencing analysis; type: functional, cell-based
[27] = system: Kasumi 1; experiment: Upregulation of NR5A1 gene expression in human Kasumi 1 cells at IC50 concentration incubated for 24 hrs by RNA sequencing analysis; type: functional, cell-based
[28] = system: Kasumi 1; experiment: Upregulation of KLF2 gene expression in human Kasumi 1 cells at IC50 concentration incubated for 24 hrs by RNA sequencing analysis; type: functional, cell-based
[29] = system: Kasumi 1; experiment: Upregulation of DACH1 gene expression in human Kasumi 1 cells at IC50 concentration incubated for 24 hrs by RNA sequencing analysis; type: functional, cell-based
[30] = system: Kasumi 1; experiment: Upregulation of CSF3R gene expression in human Kasumi 1 cells at IC50 concentration incubated for 24 hrs by RNA sequencing analysis; type: functional, cell-based
[31] = system: Kasumi 1; experiment: Upregulation of interferon-alpha response related genes in human Kasumi 1 cells at IC50 concentration incubated for 24 hrs by RNA sequencing analysis; type: functional, cell-based
[32] = system: Kasumi 1; experiment: Upregulation of interferon-gamma response related genes in human Kasumi 1 cells at IC50 concentration incubated for 24 hrs by RNA sequencing analysis; type: functional, cell-based
[33] = system: Kasumi 1; experiment: Downregulation of KRAS signaling pathway related genes in human Kasumi 1 cells at IC50 concentration incubated for 24 hrs by RNA sequencing analysis; type: functional, cell-based
[34] = system: Kasumi 1; experiment: Downregulation of E2F target related genes in human Kasumi 1 cells at IC50 concentration incubated for 24 hrs by RNA sequencing analysis; type: functional, cell-based
[35] = system: Kasumi 1; experiment: Downregulation of G2M checkpoint related genes in human Kasumi 1 cells at IC50 concentration incubated for 24 hrs by RNA sequencing analysis; type: functional, cell-based
[36] = system: Kasumi 1; experiment: Downregulation of TNF-alpha signaling related genes in human Kasumi 1 cells at IC50 concentration incubated for 24 hrs by RNA sequencing analysis; type: functional, cell-based
[37] = system: Kasumi 1; experiment: Downregulation of KRAS signaling related genes in human Kasumi 1 cells at IC50 concentration incubated for 24 hrs by RNA sequencing analysis; type: functional, cell-based
[38] = system: Kasumi 1; experiment: Downregulation of estrogen pathway related genes in human Kasumi 1 cells at IC50 concentration incubated for 24 hrs by RNA sequencing analysis; type: functional, cell-based
[39] = system: Kasumi 1; experiment: Effect on oxidative phosphorylation related protein expression in human Kasumi 1 cells by GSEA; type: functional, cell-based
[40] = system: Kasumi 1; experiment: Effect on MYC target related protein expression in human Kasumi 1 cells by GSEA; type: functional, cell-based
[41] = system: Kasumi 1; experiment: Effect on E2F target related protein expression in human Kasumi 1 cells by GSEA; type: functional, cell-based
[42] = system: Kasumi 1; experiment: Effect on glycolysis pathway related protein expression in human Kasumi 1 cells by GSEA; type: functional, cell-based
[43] = system: Kasumi 1; experiment: Effect on mTORC1 signaling related protein expression in human Kasumi 1 cells by GSEA; type: functional, cell-based
[44] = system: Kasumi 1; experiment: Effect on hypoxia pathway related protein expression in human Kasumi 1 cells by GSEA; type: functional, cell-based
[45] = system: Kasumi 1; experiment: Effect on adipogenesis pathway related protein expression in human Kasumi 1 cells by GSEA; type: functional, cell-based

Compound: CC(C)CCCC(C)CCN1C(=O)C(C23CC4CC(CC(C4)C2)C3)Nc2ccccc21 (configuration not stated)
- Activity [1]: >30%

Compound: O=C1C(C23CC4CC(CC(C4)C2)C3)Nc2ccccc2N1Cc1cccc(-c2ccccc2)c1 (configuration not stated)
- Activity [1]: >30%

Compound: O=C1C(C23CC4CC(CC(C4)C2)C3)Nc2cc3ccccc3cc2N1Cc1ccccc1 (configuration not stated)
- Activity [1]: >30%

Compound: CCN1C(=O)C(C23CC4CC(CC(C4)C2)C3)Nc2ccccc21 (configuration not stated)
- Activity [1]: >30%

Compound: C=CCCCCN1C(=O)C(C23CC4CC(CC(C4)C2)C3)Nc2ccccc21 (configuration not stated)
- Activity [1]: >30%

Compound: O=C1C(C23CC4CC(CC(C4)C2)C3)Nc2ccccc2N1c1ccc2ccccc2c1 (configuration not stated)
- Activity [1]: >30%

Compound: CCCCCCN1C(=O)C(C23CC4CC(CC(C4)C2)C3)Nc2ccccc21 (configuration not stated)
- Activity [1]: >30%

Compound: Cc1ccccc1CN1C(=O)C(C23CC4CC(CC(C4)C2)C3)Nc2ccccc21 (configuration not stated)
- Activity [1]: >30%

Compound: O=C1C(C23CC4CC(CC(C4)C2)C3)Nc2ccccc2N1Cc1ccccc1 (configuration not stated)
- Activity [1]: >30%

Compound: CN1C(=O)C(C23CC4CC(CC(C4)C2)C3)Nc2ccccc21 (configuration not stated)
- Activity [1]: >30%

Compound: O=C1C(C23CC4CC(CC(C4)C2)C3)Nc2ccccc2N1c1ccc(-c2ccccc2)cc1 (configuration not stated)
- Activity [1]: >30%

Compound: CC(C)CCN1C(=O)C(C23CC4CC(CC(C4)C2)C3)Nc2ccccc21 (configuration not stated)
- Activity [1]: >30%

Compound: O=C1C(C23CC4CC(CC(C4)C2)C3)Nc2ccccc2N1Cc1ccc(F)cc1 (configuration not stated)
- Activity [1]: >30%

Compound: O=C1C(C23CC4CC(CC(C4)C2)C3)Nc2ccccc2N1CC1CC1 (configuration not stated)
- Activity ([1]; 24 h, 50 µM): <30% and >30%
- IC50 [2]: 47 µM
- IC50 [3]: > 50 µM

Compound: Cc1ccc(CN2C(=O)C(C34CC5CC(CC(C5)C3)C4)Nc3ccccc32)cc1 (configuration not stated)
- Activity [1]: >30%

Compound: O=C1C(C23CC4CC(CC(C4)C2)C3)Nc2ccccc2N1Cc1ccc(Br)cc1 (configuration not stated)
- Activity [1]: >30%

Compound: O=C1C(C23CC4CC(CC(C4)C2)C3)Nc2ccccc2N1c1ccccc1 (configuration not stated)
- Activity [4]: inactive
- Activity [5]: inactive
- Activity [6]: inactive
- Activity [1]: <30%
- Activity [7]: Non-toxic
- Activity [8]: Non-toxic
- Activity [9]: Non-toxic
- IC50 [2]: 2.09 µM
- IC50 [3]: 40.9 µM
- Activity [10]: Active
- Activity [11]: Active
- Activity [12]: 68.99%
- Activity [13]: 18.69%
- Activity [14]: 12.31%
- Activity [15]: 83.88%
- Activity [16]: 10.74%
- Activity [17]: 5.37%
- Activity [18]: 0.02%
- Activity [19]: Active
- Activity [20]: Active
- Activity [21]: Active
- Activity [22]: Active
- Activity [23]: Active
- Activity [24]: Active
- Activity [25]: Active
- Activity [26]: Active
- Activity [27]: Active
- Activity [28]: Active
- Activity [29]: Active
- Activity [30]: Active
- Activity [31]: Active
- Activity [32]: Active
- Activity [33]: Active
- Activity [34]: Active
- Activity [35]: Active
- Activity [36]: Active
- Activity [37]: Active
- Activity [38]: Active
- Activity [39]: Active
- Activity [40]: Active
- Activity [41]: Active
- Activity [42]: Active
- Activity [43]: Active
- Activity [44]: Active
- Activity [45]: Active

Compound: O=C1C(C23CC4CC(CC(C4)C2)C3)Nc2cc(Cl)c(Cl)cc2N1Cc1ccccc1 (configuration not stated)
- Activity [1]: >30%

Compound: CSc1ccc(CN2C(=O)C(C34CC5CC(CC(C5)C3)C4)Nc3ccccc32)cc1 (configuration not stated)
- Activity [1]: >30%

Compound: Cc1cc2c(cc1C)N(Cc1ccccc1)C(=O)C(C13CC4CC(CC(C4)C1)C3)N2 (configuration not stated)
- Activity [1]: >30%

Compound: C=CCN1C(=O)C(C23CC4CC(CC(C4)C2)C3)Nc2ccccc21 (configuration not stated)
- Activity [1]: <30%
- IC50 [2]: 37.5 µM
- IC50 [3]: > 50 µM

Compound: Cc1ccc(CN2C(=O)C(C34CC5CC(CC(C5)C3)C4)Nc3cc(-c4ccc5c(c4)NC(C46CC7CC(CC(C7)C4)C6)C(=O)N5Cc4ccc(C)cc4)ccc32)cc1 (configuration not stated)
- Activity [1]: >30%

Compound: CCCCCCCCCCCCN1C(=O)C(C23CC4CC(CC(C4)C2)C3)Nc2ccccc21 (configuration not stated)
- Activity [1]: >30%

Compound: O=C1C(C23CC4CC(CC(C4)C2)C3)Nc2ccccc2N1c1ccc(OC(F)(F)F)cc1 (configuration not stated)
- Activity [1]: >30%
